# Structures can show the parent of a compound that is named as a salt.
# What was measured:
# [1] = tested on: disorders of cardiac rhythm provoked by aconitine in rats; type: in vivo; details: ED50 rat i.v. / LD50 mouse i.v.
# Method: When examining the antiarrhythmic effects, rats were pre-treated intravenously with 1 mg/kg of aconitine to provoke disorders of cardiac rhythm [Med. Exp. (Basel) 10, 93 (1964)], thereafter the test compound was administered intravenously, and the dose required to restore the rhythm in 50% (ED50 mg/kg) was determined.
# [2] = in vivo; details: mouse, iv
# [3] = tested on: calcium antagonistic effect; experiment: Calcium antagonistic effect (pA2)
SMILES,Therap. index (ED50/LD50) [1],LD50 [2],calcium antagonistic effect (pA2) [3]
"CCN1CC2CN(C)CC(C1)C2Oc1ccccc1Cl (stereo not drawn) [3-Methyl-7-ethyl-9α-(2'-chlorophenoxy)-3,7-diazabicyclo[3.3.1]nonanedihydrochloride]",0.041,28 mg/kg,–
"CN1CC2CN(C)CC(C1)C2Oc1ccc(Cl)cc1.O=C(O)/C=C/C(=O)O (stereo not shown) [3,7-Dimethyl-9-(4'-chlorophenoxy)-3,7-diazabicyclo[3.3.1]nonane fumarate]",0.017,52 mg/kg,–
"CCCCN1CC2CN(CCCC)CC(C1)C2OC(=O)c1ccc(Cl)cc1 (stereo not shown) [3,7-di-n-butyl-9-(4'-chlorobenzoyloxy)-3,7-diazabicyclo[3.3.1]nonane]",0.050,5 mg/kg,–
"CN1CC2CN(C)CC(C1)C2OC(c1ccccc1)c1ccccc1.O=C(O)/C=C/C(=O)O (stereo not shown) [3,7-Dimethyl-9-benzhydryloxy-3,7-diazabicyclo[3.3.1]nonane fumarate]",0.057,21 mg/kg,–
"CN1CC2CN(C)CC(C1)C2OC(=O)C1c2ccccc2Oc2ccccc21 (stereo not shown) [3,7-dimethyl-9-(xanthene-9'-carbonyloxy)-3,7-diazabicyclo[3.3.1]nonane]",0.019,14 mg/kg,–
"CCN1CC2CN(C)CC(C1)C2OC(=O)c1ccc(Cl)cc1Cl (stereo not drawn) [3-Methyl-7-ethyl-9α-(2',4'-dichloro-benzoyloxy)-3,7-diazabicyclo[3.3.1]nonane dihydrochloride]",0.055,20 mg/kg,–
"CCOc1ccc(C(=O)OC2C3CN(C)CC2CN(C)C3)cc1OC (stereo not shown) [3,7-Dimethyl-9-(3'-methoxy-4'-ethoxy-benzoyloxy)-3,7-diazabicyclo[3.3.1]nonane]",0.074,13.5 mg/kg,–
"CCN1CC2CN(CC)CC(C1)C2OC(=O)c1ccc(Cl)cc1.Cl.Cl.O (stereo not shown) [3,7-diethyl-9-(4'-chloro-benzoyloxy)-3,7-diazabicyclo[3.3.1]nonane dihydrochloride monohydrate]",0.036,11 mg/kg,–
"COc1ccc(CCN(C)CCCC(C#N)(c2ccc(OC)c(OC)c2)C(C)C)cc1OC (racemic) [Verapramil, reference compound]",–,–,4.58-4.7
"CN1CC2CN(C)CC(C1)C2Oc1ccccc1.O=C(O)/C=C/C(=O)O (stereo not shown) [3,7-dimethyl-9-phenoxy-3,7-diazabicyclo[3.3.1]nonane fumarate]",0.029,39 mg/kg,–
"CCN1CC2CN(C)CC(C1)C2Oc1ccc(Cl)cc1 (stereo not drawn) [3-Methyl-7-ethyl-9α-(4'-chlorophenoxy)-3,7-diazabicyclo[3.3.1]nonanedihydrochloride]",0.030,41 mg/kg,–
"CN1CC2CN(C)CC(C1)C2OC(=O)c1ccccc1 (stereo not shown) [3,7-Dimethyl-9-benzoyloxy-3,7-diazabicyclo[3.3.1]nonane]",0.009,9 mg/kg,–
"CCN1CC2CN(C)CC(C1)C2OC(=O)c1ccc(-c2ccccc2)cc1 (stereo not drawn) [3-Methyl-7-ethyl-9α-(4'-phenyl-benzoyloxy)-3,7-diazabicyclo[3.3.1]nonane]",0.061,19.5 mg/kg,–
"CN1CC2CN(C)CC(C1)C2OC(=O)c1ccc2ccccc2c1 (stereo not shown) [3,7-dimethyl-9-(2'-naphthoyloxy)-3,7-diazabicyclo[3.3.1]nonane]",0.006,17 mg/kg,–
"CCN1CC2CN(C)CC(C1)C2OC(=O)c1ccc(Cl)cc1 (stereo not drawn) [3-Methyl-7-ethyl-9α-(4'-chloro-benzoyloxy)-3,7-diazabicyclo[3.3.1]nonane dihydrochloride]",–,–,4.33-4.6
